In US20150073123A1, “SYNTHETIC PEPTIDES WITH A NON-NARCOTIC TYPE OF ANALGESIC EFFECT” (priority 2012, published 2015):
Where no end group is shown, it is not given here.

How the values were obtained:
rats [1] = test: Rat formalin test, suboccipital injection of peptide 20 min before formalin; format: in vivo; settings: for Duration of the first peak of pain reaction / Time of pain reaction onset: Table 2, suboccipital injection
Description: Analgesic activity of newly synthesized peptides was examined in the “formalin test” which allows discovering non-narcotic type of anesthesia (Wheeler-Aceto H., Porrea F., A. Cowan. The rat paw formalin test: comparison of noxious agents. Pain, 40 (1990), 229-238).
(§1) Analgesic activity of newly synthesized peptides was examined as follows. Rats weighing 180-200 g were suboccipitally injected with the study peptide under ether anesthesia using a microdispenser in 10 μl of normal saline. Control animals were similarly injected with the equal amount of normal saline. After 20 minutes, 50 mcl of formalin solution at a dilution of 1:50 was injected into the dorsal surface of the right hind paw. The time of peptide injection and formalin dilution has been developed earlier. Each rat was used only once. The most clear behavioral indicators of pain reaction were expressed in paw tucking, licking, nibbling and jolting. Moreover, the first acute reaction to pain lasting for 6-7 min in control animals was followed by the dormant period: a rat lowered its paw, grooming behavior and nibbling was stopped. Then the reaction was repeated with expression not less than the previous one—it was the second phase of pain reaction.
(§2) The moment of paw tucking (beginning of the 1st phase of pain reaction), duration of this reaction, duration of dormancy and time of onset of the second phase of reaction—repeated paw tucking or its absence—were visually recorded in order to obtain quantitative data. Peptide was injected 20 min prior to formalin injection in case of suboccipital method of peptide injection and 30 min prior to formalin injection in case of intranasal method.

rats [2] = settings: earlier work of Kotin, Vlasov et al. 1988; cited from earlier work
[3] = earlier work; cited from earlier work
rats [4] = test: Rat formalin test, intranasal administration of peptide 30 min before formalin; format: in vivo; settings: Table 7; for Duration of the 1st peak of pain reaction: in s
Description: as §1
as §2, with “method. […]” for “method.”

[5] = intranasal in citrate phosphate buffer, 30 min prior to formalin 2%, dose 10 μg

| Substance | Beginning of pain reaction (rats [4]; [5]) | Beginning of pain reaction (rats [4]; intranasal, dose 0.1 μg) | Beginning of the 2nd peak (rats [4]; intranasal, dose 0.1 μg) | Duration of the 1st peak of pain reaction (rats [4]; intranasal, dose 0.1 μg) | Beginning of pain reaction (rats [4]; intranasal, dose 1 μg) | Beginning of the 2nd peak (rats [4]; intranasal, dose 1 μg) | Duration of the 1st peak of pain reaction (rats [4]; intranasal, dose 1 μg) | Beginning of the 2nd peak (rats [4]; intranasal, dose 10 μg) | Duration of the 1st peak of pain reaction (rats [4]; intranasal, dose 10 μg) | also measured |
| --- | --- | --- | --- | --- | --- | --- | --- | --- | --- | --- |
| LHKLQT [CT16-21] |  |  |  |  |  |  |  |  |  | Duration of the first peak of pain reaction (rats [1]; rats, dose 0.001 μg/rat): 394 (34) sec; Time of pain reaction onset (rats [1]; rats, dose 0.001 μg/rat): 17 (6) sec; Duration of the first peak of pain reaction (rats [1]; rats, dose 0.01 μg/rat): 328 (21) sec; Time of pain reaction onset (rats [1]; rats, dose 0.01 μg/rat): 19 (8) sec; Duration of the first peak of pain reaction (rats [1]; rats, dose 0.1 μg/rat): 263 (20) a < 0.001 sec; Time of pain reaction onset (rats [1]; rats, dose 0.1 μg/rat): 39 (8) a < 0.001 sec; Beginning of the 2nd peak (rats [1]; Table 3, dose 1 μg per rat): 21 ± 2 min; Duration of the 1st peak (rats [1]; Table 3, dose 1 μg per rat): 284 ± 20 s; Number of animals which do not have the 2nd peak of reaction (rats [1]; Table 3, dose 1 μg per rat): 4; Beginning of pain reaction (rats [1]; Table 3, dose 1 μg per rat, in s): 30 ± 6; Analgesic activity in the rat formalin test (in words) (rats [2]): high analgesic activity; Impact on calcium metabolism [3]: does not have immunologic activity, impact on calcium metabolism |
| D-Thr-D-Glu-D-Leu-D-15 Lys-L-His-D-Leu-NH2 | 8 ± 3 s | 48 ± 18 s | 21.0 ± 5.3 min | 300 ± 10 | 10 ± 2 s | 12.5 ± 1.6, the min | 342 ± 26 | 15.0 ± 1.6 min | 314 ± 32 | Number of rats that do not have the 2nd peak (rats [4]; intranasal, dose 1 μg, remark in the 2nd peak column): first one has none |
| D-Thr-D-Glu-D-Leu-D-Lys-D-His-D-Leu-NH2 [Complete retro-inversion CT16-21] | 20 ± 9 s | 126 s | 16.2 ± 2.6 min | 249 ± 20 | 12 ± 6 s | 17.4 ± 2.9 min | 300 ± 46 | 14.4 ± 1.0 min | 333 ± 9 |  |
| CGRP |  |  |  |  |  |  |  |  |  | Beginning of pain reaction (rats [1]; Table 4, dose 1 μg): 5 (2) sec; Beginning of the 2nd peak (rats [1]; Table 4, dose 1 μg): 17 (2) min; Duration of the 1st peak of pain reaction (rats [1]; Table 4, dose 1 μg): 402 (36); Analgesic activity in the formalin test (in words) (rats [1]; rats): does not have analgesic activity |
